Data taken from patent US12187717B2, “Compound and use thereof in treating autoimmune diseases” (PARENCHYMA BIOTECH INC., priority 2022, dated 2025).

Experiments:
[1] = test system: Foxp3-expressing regulatory T cells (Treg); test: Production of Foxp3-expressing regulatory T cells from naive CD4 T cells (flow cytometry); assay type: cell-based, C57BL/6 mice; settings: 3 days
Description: The spleen of C57BL/6 mice (8 to 12 weeks old, female) was excised, pulverized by adding RPMI medium, and then passed through a 40 μm cell strainer (BD Falcon), thereby obtaining a single cell suspension. The single cell suspension was centrifuged (1200 rpm, 5 minutes), and after discarding the supernatant, 1 ml of ACK lysis buffer was added, followed by stirring for 1 minute and then washing the same with RPMI medium. After the single cell suspension was centrifuged, T-cells were separated using a Mouse CD4 Naive T cell Enrichment Kit (Invitrogen). The separated T-cells were prepared by resuspending them in RPMI-fetal bovine serum (FBS) 10%+2-ME (mercaptoethanol) medium at 1×10^6/ml. For T-cell activation, 5 μg/ml anti-CD3 (eBioscience™) was dispensed by 100 μl onto a 96-well plate, reacted in a cell incubator (37° C., 5% CO2 incubator) for 4 hours, and washed with phosphate buffered saline to prepare the plate. The T-cells were dispensed by 200 μl onto the prepared plate, and each well was treated with 2 μg/ml of anti-CD28 (eBioscience™), 2 ng/ml of TGFβ-1 (R&D systems), and 100 U/ml of IL-2. Each 5 μl of Compounds 6 and 9 at a concentration of 2.5 μM diluted in RPMI-fetal bovine serum 10%+2-ME medium was used for treatment, followed by culturing the same in a cell incubator (37° C., 5% CO2 incubator) for 3 days. […]
In order to confirm the expression of Foxp3 protein, the recovered cells were placed in a 5 ml FACS tube (BD Falcon) and washed with 1 ml of phosphate buffered saline. […] The cells were washed twice with the Permeabilization buffer, suspended in 0.3 ml of FACS buffer, and measured by flow cytometry.
The promotion effects of Compound 6 and Comparative Example 1 on the production of “FoxP3-expressing regulatory T cells,” which play an important role in maintaining immune tolerance, were compared (FIG. 24). […] After 3 days, in order to confirm the effects of production of the regulatory T cells, the cultured cells were recovered and Foxp3 protein expression was measured in the same manner as in FIG. 4.

CYP2C9 = CYP2C9 (Homo sapiens, UniProt P11712); test: CYP isoenzyme activity; assay type: in vitro ADME; settings: 10 μM
CYP1A1 = test: Induction of CYP1A1 mRNA expression in HepG2 (real-time PCR); assay type: cell-based, Human; settings: HepG2, 1 μM, 24 hours, vs control (vehicle)
Description: In order to confirm target specificity of the compounds of an embodiment of the present invention prepared as above, it was confirmed whether the expression levels of CYP1A1 mRNA and CYP1A1 protein, which are AHR target genes, were increased.
After recovering HepG2 under culture in DMEM-fetal bovine serum (FBS) 10% medium and then confirming that the survival rate is 97% or more through trypan blue staining, the recovered product was centrifuged at a speed of 1200 rpm for 5 minutes at room temperature, and the cells were prepared by resuspending them in DMEM-fetal calf serum 10% medium at 3×10^5 cells/ml. Thereafter, the cells were dispensed onto a 60 mm dish by 3 ml, and each dish was treated with 50 μl of Compounds 6, 21, 32 and 39 at a concentration of 1 μM diluted in DMEM medium, and then cultured in a cell incubator (5% CO2 incubator) for 24 hours. As a control, 50 μl of 0.05% dimethylsulfoxide (DMSO)/DMEM medium was used for treatment.
The cultured cells were recovered to prepare an mRNA sample. […] From the separated RNA, cDNA was synthesized by reverse transcription, and the expression of CYP1A1 was confirmed through a real-time polymerase chain reaction (PCR) using iQ SYBR-Green Supermix (Bio-rad) in a CFX96 (Bio-rad) detection system. […] Herein, one (1) fold was set using the control.
The real-time polymerase chain reaction was performed under the conditions of 45 cycles at an annealing temperature of 58° C., wherein the following primer sequences were used.

neutrophilic asthma = test: Neutrophilic asthma model (LPS/OVA); assay type: in vivo, C57BL/6 mice; settings: 10 mg/kg oral daily, 27th to 36th days, compared to solvent control
Description: Sensitization was induced in C57BL/6 mice (7 weeks old, female) by intranasally administering 10 μg of LPS (lipopolysaccharide, Sigma Aldrich, Cat No. L2630) and 75 μg of OVA (Ovalbumin, Sigma Aldrich, Cat No. A5503) diluted in phosphate buffered saline (20 μl in total) on the 0th, 1st, 2nd and 7th days of the experiment. From the 14th day of the experiment, 50 μg of OVA diluted in phosphate buffered saline was challenged by intranasal administration for a total of 8 times at an interval of 2 days a week until the 36th day. The intranasal administration was performed after anesthesia using an isoflurane inhalation anesthetic. In the compound 6 administration group according to an embodiment of the present invention, 10 mg/kg of Compound 6 per mouse was completely dissolved in an ethanol-Cremophor EL mixture corresponding to 7.5% (v/v) of the administered dose, and then, was diluted in phosphate buffered saline to prepare the final ethanol:Cremophor EL:phosphate buffered saline (0.375:0.375:9.25, v/v/v), followed by oral administration with 200 μl of the prepared solution daily for a total of 10 times from the 27th to the 36th days of the experiment.

Sequence of CYP2C9 (P11712 whole entry): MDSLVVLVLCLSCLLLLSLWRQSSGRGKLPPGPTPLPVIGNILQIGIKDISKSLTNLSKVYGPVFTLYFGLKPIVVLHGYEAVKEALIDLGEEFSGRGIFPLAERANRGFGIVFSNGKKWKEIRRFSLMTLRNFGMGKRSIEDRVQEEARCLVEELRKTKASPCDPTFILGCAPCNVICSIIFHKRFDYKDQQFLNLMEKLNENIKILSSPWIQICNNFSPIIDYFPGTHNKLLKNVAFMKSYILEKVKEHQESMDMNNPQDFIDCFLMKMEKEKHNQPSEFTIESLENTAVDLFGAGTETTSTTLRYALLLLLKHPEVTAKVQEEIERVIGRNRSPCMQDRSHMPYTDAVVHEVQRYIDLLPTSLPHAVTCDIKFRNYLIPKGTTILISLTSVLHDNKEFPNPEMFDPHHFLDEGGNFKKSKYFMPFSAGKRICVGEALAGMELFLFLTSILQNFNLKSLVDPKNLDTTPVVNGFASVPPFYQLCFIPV

CYP2C9 activity (CYP2C9): 94.5 % of Control Activity
CYP1A1 mRNA expression level (CYP1A1): significantly induced
Structure (SMILES): O=C(Cc1c[nH]c2ccc(Cl)cc12)Nc1nc2ccc(N3CCOCC3)cc2s1 [Compound 6, 2-(5-chloro-1H-indol-3-yl)-N-(6-morpholinobenzo[d]thiazol-2-yl)acetamide]
production of Foxp3-expressing regulatory T cells ([1]; 2.5 μM and 5 μM, compared to Comparative Example 1): significantly increased
production of Foxp3-expressing regulatory T cells ([1]; 2.5 μM, compared to Vehicle): markedly increased
number of neutrophils in the bronchoalveolar lavage (BAL) (neutrophilic asthma): significantly decreased
